How the values were obtained:
[1] = tested on: biotinylated AP-CFP-TM on HeLa cells; assay: Staining of biotinylated AP-CFP-TM on HeLa with Alexa Fluor 568-conjugated avidins; assay type: cell-based; details: avidin, Alexa Fluor 568 conjugate
Experimental: (§1) Enzymatic biotinylation and imaging of HeLa transfectants are performed as previously described (Howarth, M. et al., Proc. Natl. Acad. Sci. USA 102: 7583-7588, 2005), except instead of 10 μM biotin and 1 mM ATP, we add 10 μM biotin-AMP (synthesized according to Coleman and Huang; Coleman, T. M. and Huang, F. Chem. Biol. 9: 1227-1236, 2002) to give equivalent biotinylation but minimizing the risk of purinoreceptor activation by ATP (Rathbone, M. P. et al., Prog. Neurobiol. 59: 663-690, 1999). […] Biotinylation of neurons is performed at day in vitro (DIV) 8 in Hanks' Balanced Salt Solution (HBSS) (Invitrogen) with 0.2 μM biotin ligase and 10 μM biotin-AMP for 5 min at 37° C. […] Neurons are washed with NeuroBasal media (Invitrogen) supplemented with B-27 (Invitrogen), 50 U/mL penicillin, 50 μg/mL streptomycin, and 0.2 mM L-glutamine and chased in the same medium for 0 or 2 hr at 37° C. Cells are then fixed in −20° C. methanol. There was no signal from wild-type avidin labeling if neurons were instead transfected with Ala-neuroligin-1 containing a point mutation in AP, confirming the specificity of labeling. […]
Images of HeLa cells are collected on a Zeiss Axiovert 200M inverted epifluorescence microscope using a 40× oil-immersion lens and a MicroMAX CCD camera (Roper Scientific; Tucson, Ariz.). CFP (420DF20 excitation, 450DRLP dichroic, 475DF40 emission) and Alexa568 (560DF20 excitation, 585DRLP dichroic, 605DF30 emission) images are collected and analyzed using OpenLab software (Improvision; Lexington, Mass.). Fluorescence images are background-corrected. […] Images are scaled to 16 bits and analyzed in Northern Eclipse (Empix Imaging; Ontario, Canada) with user-written software. […] Results are then calculated in terms of clusters per micrometer of dendrite. For assessment of pre-synaptic terminals, clusters are determined as before and average grey levels of clusters are compared between transfected dendrites and untransfected dendrites within the same field of view. […] “n” represents the number of transfected neurons for which clusters were measured. […]

[2] = tested on: biotinylated AP-neuroligin-1 on hippocampal neurons; assay: AP-neuroligin-1 clustering in hippocampal neurons labeled with avidin; assay type: cell-based, rat; details: after a two hour incubation at 37° C.
Experimental: (§2) HeLa cells are grown in Dulbecco's Modified Eagle Medium (DMEM) with 10% Fetal Calf Serum, 50 U/mL penicillin and 50 μg/mL streptomycin. HeLa stably expressing AP-CFP-TM or Ala-CFP-TM have been previously described (Howarth, M. et al., Proc. Natl. Acad. Sci. USA 102: 7583-7588, 2005). Dissociated primary neuronal cultures are prepared from Embryonic Day 18 or 19 (E18/19) rats and transfected with Lipofectamine 2000 at DIV6 as in Levinson et al. (Levinson, J. N. et al. J. Biol. Chem. 280: 17312-17319, 2005). […]
(§3) Images of HeLa cells are collected on a Zeiss Axiovert 200M inverted epifluorescence microscope using a 40× oil-immersion lens and a MicroMAX CCD camera (Roper Scientific; Tucson, Ariz.). CFP (420DF20 excitation, 450DRLP dichroic, 475DF40 emission) and Alexa568 (560DF20 excitation, 585DRLP dichroic, 605DF30 emission) images are collected and analyzed using OpenLab software (Improvision; Lexington, Mass.). Fluorescence images are background-corrected. […] Images are scaled to 16 bits and analyzed in Northern Eclipse (Empix Imaging; Ontario, Canada) with user-written software. […] Results are then calculated in terms of clusters per micrometer of dendrite. For assessment of pre-synaptic terminals, clusters are determined as before and average grey levels of clusters are compared between transfected dendrites and untransfected dendrites within the same field of view. […]

biotinylated cells = assay: Binding of N23A, S27D streptavidin to biotinylated cells; assay type: cell-based
[3] = literature value; read-out: Kd for biotin, reported; cited from earlier work
[4] = Off-rate of 3H-biotin from streptavidin (cold biotin chase); assay type: binding; details: 50 μM cold biotin chase, 5 hours at 37° C., ± s.e.m.
Experimental: (Green, N. M. Methods in Enzymol. 184: 51-67, 1990). Dissociation was then initiated by addition of cold biotin at a final concentration of 50 μM and time-points taken over 5 hours at 37° C. 50 μL aliquots were removed and added to 200 μL 0.2M ZnSO4 chilled on ice, followed by 200 μL 0.2 M NaOH. The protein precipitate was pelleted by centrifugation at 16,500 g for 5 min, and ^3H-biotin in the supernatant was measured by liquid scintillation counting. Data were plotted as ln(fraction bound) versus time, and fit to a straight line by linear regression. Dissociation rates were deduced from the slope of the line and the equation: ln(fraction bound)=−koff(t) where fraction bound=(total ^3H-biotin−free ^3H-biotin at timepoint)/(total ^3H-biotin−free ^3H-biotin before cold biotin chase).

[5] = tested on: biotinylated AP-CFP-TM on HeLa cells; assay: Staining of biotinylated AP-CFP-TM on HeLa with Alexa Fluor 568-conjugated streptavidins; assay type: cell-based; details: Alexa Fluor 568 conjugate 10 μg/mL, 10 min at 4° C.
Experimental: as §1, with “transfectants were” for “transfectants are”, “we added” for “we add”, “neurons was” for “neurons is”, “Neurons were” for “Neurons are”, “Cells were” for “Cells are”, “methanol.” for “methanol. There was no signal from wild-type avidin labeling if neurons were instead transfected with Ala-neuroligin-1 containing a point mutation in AP, confirming the specificity of labeling.”
Images of HeLa cells were collected on a Zeiss Axiovert 200M inverted epifluorescence microscope using a 40× oil-immersion lens and a MicroMAX CCD camera (Roper Scientific; Tucson, Ariz.). CFP (420DF20 excitation, 450DRLP dichroic, 475DF40 emission) and Alexa568 (560DF20 excitation, 585DRLP dichroic, 605DF30 emission) images were collected and analyzed using OpenLab software (Improvision; Lexington, Mass.). Fluorescence images were background-corrected. […] Images were scaled to 16 bits and analyzed in Northern Eclipse (Empix Imaging; Ontario, Canada) with user-written software. […] Results were then calculated in terms of clusters per micrometer of dendrite. For assessment of pre-synaptic terminals, clusters were determined as before and average grey levels of clusters were compared between transfected dendrites and untransfected dendrites within the same field of view. […] “n” represents the number of transfected neurons for which clusters were measured. […]

[6] = tested on: biotinylated AP-neuroligin-1 on hippocampal neurons; assay: AP-neuroligin-1 clustering in hippocampal neurons labeled with streptavidin; assay type: cell-based, rat; details: two hour incubation at 37° C., Alexa Fluor 568 conjugate; ± s.e.m., n=9
Experimental: as §2, with “HeLa cells were grown in” for “HeLa cells are grown in”, “neuronal cultures were prepared from” for “neuronal cultures are prepared from”, “N. et al., J. Biol.” for “N. et al. J. Biol.”
as §3, with “cells were” for “cells are”, “images were” for “images are”, “Images were” for “Images are”, “Results were” for “Results are”, “clusters were” for “clusters are”

## wild-type avidin: Wild-type avidin tetramer of four wild-type monomers (SEQ ID NO:17) [reference compound]
[1]
  Alexa staining of biotinylated AP-CFP-TM: detected equally well
[2]
  staining pattern of labeled AP-neuroligin-1: distinct aggregates

## N23A, S27D: Streptavidin double mutant, still a tetramer, one of the weakest reported affinities for biotin
Biotinylated cells
  binding to biotinylated cells: still bound to biotinylated cells
[3]
  Kd: 71 µM

## wild-type streptavidin: Wild-type core streptavidin tetramer with 4 biotin binding sites (SEQ ID NO:2) [reference compound]
[4]
  off-rate from biotin: 5.17±0.25×10^−5 s^−1
[5]
  Alexa staining of biotinylated AP-CFP-TM: detected equally well
[6]
  AP-neuroligin-1 clusters per micrometer of dendrite: 0.266±0.011 clusters/μm

Reference: patent US20070105162A1, “Monovalent avidin and streptavidin compositions” (Massachusetts Institute of Technology, priority 2005, published 2007)
